Results taken from US9029337B2, “Modulation of factor 7 expression” (Isis Pharmaceuticals, Inc., priority 2007, dated 2015).
Values belong to the compound of their own block, whether it stands above or below them.

Assays:
Assay type in all cases: in vivo, mouse
[1] = test system: BALB/c mice; test: Tail bleeding assay
Procedure: (§1) Mice not receiving treatment with FeCl3 solution were evaluated in a tail bleeding chamber. Mice were placed into the bleeding chamber two days after the final treatment of ISIS 403102 or PBS. Mice were anesthetized in the chamber with isofluorane and a small piece of tail (approximately 4 mm from the tip) was cut with sterile scissors. The cut tail was immediately placed in a 15 mL Falcon tube filled with approximately 10 mL of 0.9% NaCl buffer solution warmed to 37° C. The blood was collected over the course of 40 minutes. The saline filled tubes were weighed both before and after bleeding.
Tail-bleeding was measured to observe whether treatment with ISIS 403102 or warfarin causes internal hemorrhage in mice. ISIS 403102 and warfarin (Coumadin®) were evaluated in the tail bleeding assay. Six groups of BALB/c mice were treated with 1.25 mg/kg, 2.5 mg/kg, 5 mg/kg, 10 mg/kg, 20 mg/kg, or 40 mg/kg of ISIS 403102, administered subcutaneously twice a week for 3 weeks. An additional 6 groups of BALB/c mice were treated with 0.5 mg/kg, 1 mg/kg, 2 mg/kg, 3 mg/kg, 4 mg/kg, and 5 mg/kg of warfarin, administered intraperioneally daily for 6 days. A separate control group of BALB/c mice was treated with PBS, administered subcutaneously twice a week for 3 weeks.
as §1, with “Two” for “Mice not receiving treatment with FeCl3 solution were evaluated in a tail bleeding chamber. Mice were placed into the bleeding chamber two”, “403102, warfarin,” for “403102”, “PBS, mice were placed in a tail bleeding chamber.” for “PBS.”
ISIS 403102 and Apixaban were evaluated in BALB/c mice. In a first group of BALB/c mice, 40 mg/kg of ISIS 403102 was administered subcutaneously twice a week for 3 weeks. An additional 3 groups of BALB/c mice were treated with 5 mg/kg and 10 mg/kg of Apixaban, administered in a single intraperitoneal dose, and 10 mg/kg of Apixaban administered as a single subcutaneous dose. A control group of BALB/c mice was treated with PBS, administered subcutaneously twice a week for 3 weeks.
as §1, with “Two” for “Mice not receiving treatment with FeCl3 solution were evaluated in a tail bleeding chamber. Mice were placed into the bleeding chamber two”, “PBS, mice were placed in a tail bleeding chamber. Mice from the groups treated with Apixaban were analyzed 30 minutes after the single dose.” for “PBS.”, “weighed” for “weighed both”

[2] = test system: platelet factor-4 (PF-4); test: Thrombus formation by real-time RT-PCR quantification of PF-4 in the FeCl3 induced venous thrombosis model; conditions: Example 16; dose of 1 mg/kg and higher, intraperitoneally daily for 6 days
Procedure: (§2) Three groups of BALB/c mice were injected with 25 mg/kg, 37.5 mg/kg, or 50 mg/kg of ISIS 403102, administered subcutaneously twice a week for 3 weeks. Two control groups of BALB/c mice were treated with PBS, administered subcutaneously twice a week for 3 weeks. Thrombus formation was induced with FeCl3 in half of the mice while the rest of the mice were assayed for tail bleeding. Two days after receiving the last dose of ISIS 403102 or PBS, mice were anesthetized with 150 mg/kg ketamine mixed with 10 mg/kg xylazine administered by intraperitoneal injection. Thrombus formation was induced with FeCl3 in all groups of the VT mice except the first control group.
(§3) In mice undergoing FeCl3 treatment, thrombus formation was induced by applying a piece of filter paper (2×4 mm) pre-saturated with 10% FeCl3 solution directly on the vena cava. After 3 minutes of exposure, the filter paper was removed. Thirty minutes after the filter paper application, a fixed length of the vein containing the thrombus was dissected out for platelet analysis. Liver was collected for RNA analysis.
(§4) Real-time RT-PCR quantification of platelet factor-4 (PF-4) was used to quantify platelets in the vena cava as a measure of thrombus formation. Results are presented as a percentage of PF-4 in ISIS 403102, as compared to the two PBS-treated control groups. […] Therefore, antisense oligonucleotides are useful for inhibiting thrombus and clot formation.
(§5) ISIS 403102 and warfarin (Coumadin®) were evaluated in BALB/c mice. Four groups of BALB/c mice were treated with 5 mg/kg, 10 mg/kg, 20 mg/kg, or 40 mg/kg of ISIS 403102, administered subcutaneously twice a week for 3 weeks. Two days after receiving the last dose of ISIS 403102, mice were anesthetized with 150 mg/kg ketamine mixed with 10 mg/kg xylazine administered by intraperitoneal injection. Six additional groups of BALB/c mice was treated with 0.5 mg/kg, 1 mg/kg, 2 mg·kg, 3 mg/kg, 4 mg/kg, or 5 mg/kg of warfarin, administered intraperioneally daily for 6 days. Four hours after the last dose of warfarin, mice were sacrificed. A control group of BALB/c mice were treated with PBS, administered subcutaneously twice a week for 3 weeks. Two days after the last dose of PBS, mice were anesthetized with 150 mg/kg ketamine mixed with 10 mg/kg xylazine administered by intraperitoneal injection. Thrombus formation was induced with FeCl3 in groups of mice except the first control group.
as §4, with “403102 or warfarin treated mice,” for “403102,”, “Therefore, ISIS” for “Therefore,”

[3] = test system: murine Factor 7 mRNA; test: Liver Factor 7 mRNA in the FeCl3 induced venous thrombosis model; conditions: Example 15
Procedure: as §2, §3
RNA was extracted from liver tissue for real-time RT-PCR analysis of Factor 7. Results are presented as percent inhibition of Factor 7, relative to PBS control.
as §5, with “A fifth group” for “Six additional groups”, “with” for “with 0.5 mg/kg, 1 mg/kg, 2 mg·kg,”, “3” for “3 mg/kg, 4 mg/kg, or 5”

Compound: 403102 (antisense CCATAGAACAGCTTCACAGG; chemistry not given here) [compound 403102]
- Blood (g), tail bleeding ([1]; mouse, in vivo, sc, 25 mg/kg): 0.06 g
- Blood (g), tail bleeding ([1]; mouse, in vivo, sc, 37.5 mg/kg): 0.06 g
- Blood (g), tail bleeding ([1]; mouse, in vivo, sc, 50 mg/kg): 0.10 g

Compound: CC(=O)CC(c1ccccc1)c1c(O)c2ccccc2oc1=O (stereo not shown) [warfarin]
- bleeding as compared to PBS control mice ([1]; Example 17, 0.5-5 mg/kg intraperitoneally daily for 6 days): did increase bleeding
- Blood (g), tail bleeding ([1]; Example 17, BALB/c mice, 0.5 mg/kg i.p. daily for 6 days, blood collected over 40 minutes): 0.16 g
- Blood (g), tail bleeding ([1]; Example 17, BALB/c mice, 1 mg/kg i.p. daily for 6 days, blood collected over 40 minutes): 0.28 g
- Blood (g), tail bleeding ([1]; Example 17, BALB/c mice, 2 mg/kg i.p. daily for 6 days, blood collected over 40 minutes): 0.58 g
- Blood (g), tail bleeding ([1]; Example 17, BALB/c mice, 3 mg/kg i.p. daily for 6 days, blood collected over 40 minutes): 0.78 g
- Blood (g), tail bleeding ([1]; Example 17, BALB/c mice, 4 mg/kg i.p. daily for 6 days, blood collected over 40 minutes): 0.66 g
- Blood (g), tail bleeding ([1]; Example 17, BALB/c mice, 5 mg/kg i.p. daily for 6 days, blood collected over 40 minutes): 0.93 g
- PF-4 in comparison to the PBS control [2]: reduction of PF-4
- reduction of Factor 7 mRNA as compared to the PBS control ([3]; 3 mg/kg intraperitoneally daily for 6 days): did not result in significant reduction of Factor 7
- % inhibition of Factor 7 mRNA, relative to PBS control ([3]; BALB/c mice liver, 3 mg/kg i.p. daily for 6 days, four hours after last dose): 10%

- Blood (g), tail bleeding ([1]; BALB/c, mouse, in vivo, ip, 5 mg/kg, 30 min): 0.22 g
- Blood (g), tail bleeding ([1]; BALB/c, mouse, in vivo, ip, 10 mg/kg, 30 min): 0.58 g
- Blood (g), tail bleeding ([1]; BALB/c, mouse, in vivo, sc, 10 mg/kg, 30 min): 0.04 g
- bleeding compared to PBS treated mice ([1]; mouse, in vivo, ip, 10 mg/kg): increased bleeding
- bleeding compared to PBS treated mice ([1]; mouse, in vivo, sc, 10 mg/kg): less bleeding than PBS mice
Compound: COc1ccc(-n2nc(C(N)=O)c3c2C(=O)N(c2ccc(N4CCCCC4=O)cc2)CC3)cc1 [apixaban, Apixaban]
- bleeding compared to PBS treated mice ([1]; mouse, in vivo, ip, 5 mg/kg): same amount of bleeding as PBS treated mice
